Assay results taken from US20230192617A1, “AZABICYCLIC(THIO)AMIDES AS FUNGICIDAL COMPOUNDS” (Bayer CropScience Aktiengesellschaft, priority 2020, published 2023).

Key:
[1] = system: Colletotrichum lindemuthianum; assay: B-8. Colletotrichum lindemuthianum in vitro cell test; format: cell-based; details: 144 h, 20 ppm of active ingredient, 6 days incubation, liquid culture, absorbance, read-out: efficacy (inhibition of fungal growth)
Method: (§1) B-8. Colletotrichum lindemuthianum In Vitro Cell Test [table] Fungicides were solubilized in DMSO and the solution used to prepare the required range of concentrations. The final concentration of DMSO used in the assay was ≤1%. A spore suspension of C. lindemuthianum was prepared and diluted to the desired spore density. Fungicides were evaluated for their ability to inhibit spores germination and mycelium growth in liquid culture assay. The compounds were added in the desired concentration to the culture medium with spores. After 6 days incubation, fungi-toxicity of compounds was determined by spectrometric measurement of mycelium growth. Inhibition of fungal growth was determined by comparing the absorbance values in wells containing the fungicides with the absorbance in control wells without fungicides.

[2] = Measurement of Log P values by HPLC on reversed phase columns (EEC directive 79/831 Annex V.A8); format: physicochemical; details: reversed phase HPLC column, method [a]: LC-UV, acidic range, 0.1% formic acid in water and acetonitrile as eluent
Method: A-1.1. Measurement of Log P Values
Measurement of Log P values as provided herein was performed according to EEC directive 79/831 Annex V.A8 by HPLC (High Performance Liquid Chromatography) on reversed phase columns with the following methods:
^[a] Log P value is determined by measurement of LC-UV, in an acidic range, with 0.1% formic acid in water and acetonitrile as eluent (linear gradient from 10% acetonitrile to 95% acetonitrile).
^[b] Log P value is determined by measurement of LC-UV, in a neutral range, with 0.001 molar ammonium acetate solution in water and acetonitrile as eluent (linear gradient from 10% acetonitrile to 95% acetonitrile).
^[c] Log P value is determined by measurement of LC-UV, in an acidic range, with 0.1% phosphoric acid and acetonitrile as eluent (linear gradient from 10% acetonitrile to 95% acetonitrile).
If more than one Log P value is available within the same method, all the values are given and separated by “+”. […]

Alternaria alternata = Alternaria alternata in vitro cell test; format: cell-based; details: 120 h, 20 ppm of active ingredient, liquid culture, 5 days incubation, spectrometric measurement of mycelium growth, read-out: efficacy (inhibition of fungal growth)
Method: as §1, with “B-6. Alternaria alternata In” for “B-8. Colletotrichum lindemuthianum In”, “of A. alternata” for “of C. lindemuthianum”, “inhibit spore” for “inhibit spores”, “After 5” for “After 6”

Botrytis cinerea [3] = assay: In vivo preventive test on Botrytis cinerea (grey mould); details: 500 ppm of active ingredient, preventive spray on gherkin or cabbage, evaluated 4 to 5 days after inoculation, read-out: efficacy
Method: B-2. In Vivo Preventive Test on Botrytis cinerea (Grey Mould) [table] The active ingredients were made soluble and homogenized in a mixture of Dimethyl sulfoxide/Acetone/Tween® 80 and then diluted in water to the desired concentration. The young plants of gherkin or cabbage were treated by spraying the active ingredient prepared as described above. Control plants were treated only with an aqueous solution of Acetone/Dimethyl sulfoxide/Tween® 80. After 24 hours, the plants were contaminated by spraying the leaves with an aqueous suspension of Botrytis cinerea spores. The contaminated gherkin plants were incubated for 4 to 5 days at 17° C. and at 90% relative humidity. The contaminated cabbage plants were incubated for 4 to 5 days at 20° C. and at 100% relative humidity.

Pyrenophora teres = assay: B-10. Pyrenophora teres in vitro cell test; format: cell-based; details: 144 h, 20 ppm of active ingredient, 6 days incubation, liquid culture, absorbance, read-out: efficacy (inhibition of fungal growth)
Method: as §1, with “B-10. Pyrenophora teres In” for “B-8. Colletotrichum lindemuthianum In”, “of P. teres” for “of C. lindemuthianum”, “inhibit spore” for “inhibit spores”

Botrytis cinerea [4] = assay: B-11. Botrytis cinerea in vitro cell test; format: cell-based; details: 144 h, 20 ppm of active ingredient, 6 days incubation, liquid culture, absorbance, read-out: efficacy (inhibition of fungal growth)
Method: as §1, with “B-11. Botrytis cinerea In” for “B-8. Colletotrichum lindemuthianum In”, “of B. cinerea” for “of C. lindemuthianum”, “inhibit spore” for “inhibit spores”

Alternaria brassicae = assay: In vivo preventive test on Alternaria brassicae (leaf spot on radish or cabbage); details: 500 ppm of active ingredient, preventive spray on radish or cabbage, evaluated 3 to 4 days after inoculation, read-out: efficacy
Method: B-1. In Vivo Preventive Test on Alternaria brassicae (Leaf Spot on Radish or Cabbage) [table] The active ingredients were made soluble and homogenized in a mixture of Dimethyl sulfoxide/Acetone/Tween® 80 and then diluted in water to the desired concentration. The young plants of radish or cabbage were treated by spraying the active ingredient prepared as described above. Control plants were treated only with an aqueous solution of Acetone/Dimethyl sulfoxide/Tween® 80. After 24 hours, the plants were contaminated by spraying the leaves with an aqueous suspension of Alternaria brassicae spores. The contaminated radish or cabbage plants were incubated for 3 to 4 days at 20° C. and at 100% relative humidity.

| chromatographic logP [2] | SMILES | inhibition at 20 ppm [1] [%] | inhibition at 20 ppm (Alternaria alternata) [%] | pest or weed control at 500 ppm (Botrytis cinerea [3]) [%] | inhibition at 20 ppm (Pyrenophora teres) [%] | inhibition at 20 ppm (Botrytis cinerea [4]) [%] | pest or weed control at 500 ppm (Alternaria brassicae) [%] |
| --- | --- | --- | --- | --- | --- | --- | --- |
| 4.03 | C[C@H](NC(=O)c1c(Oc2cccc(C(F)(F)F)c2)nnc2ccccc12)c1cccc(C(F)(F)F)c1 (racemic) [I-022] | 70 to 79 | 80 to 89 | 90 to 100 |  |  |  |
| 4.4 | Cc1ccc(CCNC(=O)c2c(Oc3cccc(C(F)(F)F)c3)nnc3cc(F)ccc23)c(C)c1 [I-007] | 90 to 100 | 90 to 100 | 90 to 100 |  |  |  |
| 4.86 | CC(C)CON(Cc1ccccc1)C(=O)c1c(Oc2cccc(C(F)(F)F)c2)nnc2ccccc12 [I-170] | 70 to 79 |  |  |  | 90 to 100 |  |
| 3.2 | O=C(NCC(F)(F)c1ccc(Cl)cn1)c1c(Oc2cccc(C(F)F)c2)nnc2ccccc12 [I-036] | 90 to 100 | 90 to 100 | 90 to 100 |  |  | 90 to 100 |
| 3.07 | N#Cc1ccc(CONC(=O)c2c(Oc3cccc(C(F)(F)F)c3)nnc3ccccc23)cc1 [I-088] | 90 to 100 |  |  |  | 90 to 100 |  |
| 4.69 | Cc1ccc(CCNC(=O)c2c(Oc3cccc(C(F)(F)F)c3)nnc3c(C)cccc23)c(C)c1 [I-005] | 80 to 89 | 90 to 100 | 90 to 100 |  |  |  |
| 3.65 | N#Cc1cccc(Oc2nnc3ccccc3c2C(=O)NC[C@H](F)c2ccc(Br)cc2Cl)c1 (racemic) [I-031] | 90 to 100 | 90 to 100 | 90 to 100 |  |  | 90 to 100 |
| 3.58 | Cc1ccc(C(F)(F)CNC(=O)c2c(Oc3cccc(C#N)c3)nnc3ccccc23)c(C)c1 [I-030] | 90 to 100 | 90 to 100 | 90 to 100 |  |  |  |
| 4.88 | Cc1ccc2c(C(=O)N[C@H]3CCCc4cc(Br)ccc43)c(Oc3cccc(C(F)(F)F)c3)nnc2c1 (racemic) [I-181] |  | 80 to 89 |  |  |  |  |
| 3.9 | C[C@H](NC(=O)c1c(Oc2cccc(Cl)c2)nnc2ccccc12)c1cccc(C(F)(F)F)c1 (racemic) [I-016] | 80 to 89 | 80 to 89 | 90 to 100 |  |  | 90 to 100 |
| 5.01 | Cc1ccc(C(F)(F)CNC(=S)c2c(Oc3cccc(Cl)c3)nnc3ccccc23)c(C)c1 [I-158, 3-(3-chlorophenoxy)-N-[2-(2,4-dimethylphenyl)-2,2-difluoro-ethyl]cinnoline-4-carbothioamide] | 90 to 100 | 90 to 100 |  |  |  | 90 to 100 |
| 3.69 | O=C(N[C@H]1CCOc2ccc(F)cc21)c1c(Oc2cccc(C(F)(F)F)c2)nnc2ccccc12 (racemic) [I-165] |  |  |  | 90 to 100 |  |  |
| 4.74 | Cc1ccc(C(F)(F)F)cc1Oc1nnc2ccccc2c1C(=O)NC[C@H](F)c1ccc(Cl)cc1Cl (racemic) [I-183] |  |  |  | 70 to 79 |  |  |
| 4.46 | O=C(NCC(F)(F)c1ccc(Br)cc1Cl)c1c(Oc2cccc(Cl)c2)nnc2ccccc12 [I-013] | 90 to 100 | 90 to 100 | 90 to 100 |  |  | 90 to 100 |
| 3.77 | N#Cc1cccc(Oc2nnc3ccccc3c2C(=O)NCC(F)(F)c2ccc(Br)cc2Cl)c1 [I-032] | 90 to 100 | 90 to 100 | 90 to 100 |  |  |  |

More lines, now with the values behind:

| SMILES | chromatographic logP [2] | inhibition at 20 ppm [1] [%] | inhibition at 20 ppm (Alternaria alternata) [%] | pest or weed control at 500 ppm (Botrytis cinerea [3]) [%] | inhibition at 20 ppm (Pyrenophora teres) [%] | inhibition at 20 ppm (Botrytis cinerea [4]) [%] | pest or weed control at 500 ppm (Alternaria brassicae) [%] |
| --- | --- | --- | --- | --- | --- | --- | --- |
| COc1cc(OC)nc(Oc2cnc3ccccc3c2C(=O)NCC(F)(F)c2ccc(C)cc2C)n1 [I-187] | 3.74 |  | 70 to 79 |  | 90 to 100 |  |  |
| O=C(NC[C@@H](F)c1ccc(Cl)c(Cl)c1)c1c(Oc2cccc(Cl)c2)nnc2ccccc12 (racemic) [I-051] | 4.23 | 90 to 100 | 90 to 100 |  |  |  | 70 to 79 |
| O=C(NCCc1cnc(C(F)(F)F)nc1)c1c(Oc2cccc(C(F)(F)F)c2)nnc2ccccc12 [I-195] | 3.22 |  |  |  | 90 to 100 |  |  |
| O=C(NCC(F)(F)c1ccc(Cl)cc1)c1c(Oc2cccc(C(F)(F)F)c2)cnc2ccccc12 [I-037] | 4.23 | 90 to 100 |  | 80 to 89 |  | 90 to 100 |  |
| Cc1ccc2c(C(=O)NCC(F)(F)c3ccc(Br)cc3Cl)c(Oc3cccc(C(F)(F)F)c3)nnc2c1 [I-045] | 4.64 | 90 to 100 | 90 to 100 | 90 to 100 |  |  | 90 to 100 |
| COc1ccc2c(C(=O)NCCc3ccc(C)cc3C)c(Oc3cccc(C(F)(F)F)c3)nnc2c1 [I-009] | 4.3 |  | 90 to 100 |  |  |  |  |
| O=C(NCC(F)(F)c1ccc(Cl)cc1)c1c(Oc2ccc(Cl)cc2)nnc2ccccc12 [I-018] | 3.96 |  | 80 to 89 | 90 to 100 |  |  |  |
| O=C(N[C@H]1CCCc2cc(Cl)sc21)c1c(Oc2cccc(C(F)(F)F)c2)cnc2ccccc12 (racemic) [I-040] | 4.54 | 90 to 100 | 90 to 100 | 80 to 89 |  |  |  |
| O=C(N/C=C\c1ccccc1)c1c(Oc2cccc(C(F)(F)F)c2)cnc2ccccc12 [I-001] | 4.17 |  | 70 to 79 | 90 to 100 |  |  |  |
| O=C(NCC(F)(F)c1ccc(Br)cc1Cl)c1c(Oc2ccc(Cl)cc2)nnc2ccccc12 [I-019] | 4.46 |  | 80 to 89 | 90 to 100 |  |  | 70 to 79 |
| Cc1ccc(CCNC(=O)c2c(Oc3cccc(C(F)(F)F)c3)nnc3cnccc23)c(C)c1 [I-011] | 3.88 |  | 90 to 100 | 90 to 100 |  |  | 80 to 89 |
| N#Cc1cccc(Oc2nnc3ccccc3c2C(=O)NCC(F)(F)c2ccc(Cl)cc2)c1 [I-160] | 3.33 | 90 to 100 | 90 to 100 |  |  |  | 80 to 89 |
